“Also recorded” adds a separate entry of the source.
Key:
[1] = system: HEY cells; experiment: qRT-PCR of EMT marker mRNAs in transfected HEY cells; format: cell-based, human
Experimental: 6×10^4 cells per well were seeded in 24-well plates. After 24 h, cells were transfected with 30 nM of miR-429 and miR-320 miRNA oligonucleotides (Ambion, Austin, Tex.) using Lipofectamine 2000 reagent (Invitrogen, Carlsbad, Calif.). The Ambion Pre-miRNA Precursor Negative Control was used as a control. Three days after transfection, cells were split and transfected again. This process was repeated every 3 days until 21 days when cells were assayed for response.
Total RNA was extracted from cells using the miRVana miRNA isolation kit (Ambion). MicroRNA expression was carried our using TaqMan microRNA assays (Applied Biosystems, Carlsbad, Calif.) with human U6 as the endogenous control. For mRNA quantitation, RNA (4.0 μg) was reversed transcribed into cDNA using the Superscript III First-strand Synthesis System (Invitrogen) according to the manufacturer's instructions using sequence specific primers. Real-time PCR was performed using Power SYBR Green PCR Master Mix (Bio-Rad, Hercules, Calif.) and data normalized to glyceraldehydes-3-phosphate-dehydrogenase (GAPDH). Each transfection experiment was carried out in triplicate with 3 PCR reactions performed per transfection. The PCR results were analyzed by 1-way Analysis of Variance (ANOVA) and the Newman-Keuls-Student t test. A p value of <0.05 was considered significant.

[2] = system: HEY cells; experiment: serum-induced migration, trans-well chamber assay; format: cell-based, human; conditions: miR-429 transfected HEY cells vs negative control
Experimental: For the migration and invasion assays, 2.5×10^3 overnight serum starved cells in serum-free media were added to the top chambers of trans-well plates (8 μm pore size; BD, Franklin Lakes, N.J.) and media containing 10% fetal calf serum (FCS) were added to the bottom chambers. After 8-12 h, the non-migrating (top) cells were removed and the invading (bottom) cells were counted. All assays were done in triplicate. For the wound-healing assay, 2.5×10^5 cells were seeded into six-well plates. After 24 h, a wound was incised, detached cells removed and fresh media added. Photos were taken after 8 hrs to monitor the invasion of cells into the wounded area.
To further explore the effects of ectopic expression of miR-429 in HEY cells, we looked for changes in cellular functions frequently associated with EMT. For example, ovarian and other types of cancer cells undergoing EMT typically display increased motility/migration and invasiveness. […] Relative invasiveness was also measured by monitoring serum-induced invasion through a matrigel layer.

Substance: miR-429: miR-200 family member; mature miRNA UAAUACUGUCUGGUAAAACCGU (SEQ ID NO: 6); miRNA oligonucleotide (Ambion) transfected at 30 nM (listed as RNA, chemistry not given here; listed as Homo sapiens) [miR-200 family member; miRNA oligonucleotide (Ambion) transfected at 30 nM]
- levels of E-cadherin mRNA [1]: concomitant increase; also recorded: significantly higher
- levels of FN1 (fibronectin) mRNA [1]: No significant difference
- levels of N-cadherin mRNA [1]: No significant difference
- levels of VIM (vimentin) mRNA [1]: No significant difference
- levels of ZEB1 mRNA [1]: significant decrease; also recorded: significantly lower
- levels of ZEB2 mRNA [1]: significant decrease; also recorded: significantly lower
- migration through pores, slower than negative controls [2]: > 2 fold

Source: patent US8895509B2, “MIR-200 family induces mesenchymal-to-epithelial transition (MET) in ovarian cancer cells” (Georgia Tech Research Corporation, priority 2010, dated 2014)
